Test results as given in patent US10689399B2, “Substituted 3,4,5,6,8,10,14,14a-octahydro-2h-2,6-methanopyrido[1′,2′:4,5]pyrazino[2,1-b][1,3]oxazocines and methods for treating viral infections” (Gilead Sciences, Inc., priority 2012, dated 2020).

test system: HIV-IIIb; assay: Antiviral assay in MT4 cells; format: cell-based; conditions: Human immunodeficiency virus 1, IIIB, MT4, 120 h, MT4 cells infected with HIV-IIIb, 5 days, CellTiter-Glo; read-out: EC50 nM in MT-4
Description: For the antiviral assay utilizing MT4 cells, 0.4 μL of 189X test concentration of 3-fold serially diluted compound in DMSO was added to 40 μL of cell growth medium (RPMI 1640, 10% FBS, 1% penicilline/Streptomycine, 1% L-Glutamine, 1% HEPES) in each well of 384-well assay plates (10 concentrations) in quidruplicate.
1 mL aliquots of 2×10^6 MT4 cells are pre-infected for 1 and 3 hours respectively at 37° C. with 25 μL (MT4) or of either cell growth medium (mock-infected) or a fresh 1:250 dilution of an HIV-IIIb concentrated ABI stock (0.004 m.o.i. for MT4 cells). Infected and uninfected cells are diluted in cell growth medium and 35 μL of 2000 (for MT4) cells is added to each well of the assay plates.
Assay plates were then incubated in a 37° C. incubator. After 5 days of incubation, 25 μL of 2× concentrated CellTiter-Glo™ Reagent (catalog # G7573, Promega Biosciences, Inc., Madison, Wis.) was added to each well of the assay plate. Cell lysis was carried out by incubating at room temperature for 2-3 minutes, and then chemiluminescence was read using the Envision reader (PerkinElmer).

SMILES	EC50
O=C(N[C@@H](c1ccc(F)cc1F)C(F)(F)F)c1cn2c(c(O)c1=O)C(=O)N1C(C2)O[C@H]2CC[C@@H]1C2 (stereo partly drawn) [Compound 36, (2S,5R)—N—((S)-1-(2,4-difluorophenyl)-2,2,2-trifluoroethyl)-8-hydroxy-7,9-dioxo-2,3,4,5,7,9,13,13a-octahydro-2,5-methanopyrido[1′,2′:4,5]pyrazino[2,1-b][1,3]oxazepine-10-carboxamide]	7.6 nM
O=C(NCc1cccc(Cl)c1F)c1cn2c(c(O)c1=O)C(=O)N1[C@H]3CC[C@H](C3)O[C@@H]1C2 [Compound 88, (2R,5S,13aR)—N-(3-chloro-2-fluorobenzyl)-8-hydroxy-7,9-dioxo-2,3,4,5,7,9,13,13a-octahydro-2,5-methanopyrido[1′,2′:4,5]pyrazino[2,1-b][1,3]oxazepine-10-carboxamide]	2.9 nM
O=C(NC1(c2ccc(F)cc2F)CC1)c1cn2c(c(O)c1=O)C(=O)N1C(C2)O[C@H]2CC[C@@H]1C2 (stereo partly drawn) [Compound 27, (2 S,5R)—N-(1-(2,4-difluorophenyl)cyclopropyl)-8-hydroxy-7,9-dioxo-2,3,4,5,7,9,13,13a-octahydro-2,5-methanopyrido[1′,2′:4,5]pyrazino[2,1-b][1,3]oxazepine-10-carboxamide]	4.4 nM
O=C(NC1(c2ccc(F)cc2F)CCC1)c1cn2c(c(O)c1=O)C(=O)N1C(C2)O[C@H]2CC[C@@H]1C2 (stereo partly drawn) [Compound 32, (2S,5R)—N-(1-(2,4-difluorophenyl)cyclobutyl)-8-hydroxy-7,9-dioxo-2,3,4,5,7,9,13,13a-octahydro-2,5-methanopyrido[1′,2′: 4,5]pyrazino[2,1-b][1,3]oxazepine-10-carboxamide]	14 nM
C[C@H](NC(=O)c1cn2c(c(O)c1=O)C(=O)N1[C@@H]3CC[C@@H](C3)O[C@H]1C2)c1ccc(F)cc1F [Compound 13, (2S,5R,13aS)—N—((S)-1-(2,4-difluorophenyl)ethyl)-8-hydroxy-7,9-dioxo-2,3,4,5,7,9,13,13a-octahydro-2,5-methanopyrido[1%2′: 4,5]pyrazino[2,1-b][1,3]oxazepine-10-carboxamide]	46 nM
O=C(NCc1cccc(Cl)c1)c1cn2c(c(O)c1=O)C(=O)N1[C@H]3CC[C@H](C3)[C@@H]1C2 [Compound 72, (1R,4S,12aR)—N-(3-chlorobenzyl)-7-hydroxy-6,8-dioxo-1,2,3,4,6,8,12,12a-octahydro-1,4-methanodipyrido[1,2-a:1′,2′-d]pyrazine-9-carboxamide]	4.3 nM
O=C(NC1(c2ccc(F)cc2F)CC1)c1cn2c(c(O)c1=O)C(=O)N1C(C2)O[C@@H]2CCC[C@H]1C2 (stereo partly drawn) [Compound 29, (2R,6S)—N-(1-(2,4-difluorophenyl)cyclopropyl)-9-hydroxy-8,10-dioxo-3,4,5,6,8,10,14,14a-octahydro-2H-2,6-methanopyrido[1′,2′:4,5]pyrazino[2,1-b][1,3]oxazocine-11-carboxamide]	13.9 nM
O=C(NCc1ccccc1)c1cn2c(c(O)c1=O)C(=O)N1[C@H]3CC[C@H](C3)[C@@H]1C2 [Compound 94, (1R,4S,12aR)—N-benzyl-7-hydroxy-6,8-dioxo-1,2,3,4,6,8,12,12a-octahydro-1,4-methanodipyrido[1,2-a:1′,2′-d]pyrazine-9-carboxamide]	11.5 nM
O=C(NCc1ccc(F)c(F)c1)c1cn2c(c(O)c1=O)C(=O)N1[C@H]3CC[C@H](C3)[C@@H]1C2 [Compound 66, (1R,4S,12aR)—N-(3,4-difluorobenzyl)-7-hydroxy-6,8-dioxo-1,2,3,4,6,8,12,12a-octahydro-1,4-methanodipyrido[1,2-a:1′,2′-d]pyrazine-9-carboxamide]	9.4 nM
O=C(NCc1ccc(F)cc1OC1CC1)c1cn2c(c(O)c1=O)C(=O)N1[C@@H]3CC[C@@H](C3)O[C@H]1C2 [Compound 52, (2S,5R,13aS)—N-(2-cyclopropoxy-4-fluorobenzyl)-8-hydroxy-7,9-dioxo-2,3,4,5,7,9,13,13a-octahydro-2,5-methanopyrido[1%2′: 4,5]pyrazino[2,1-b][1,3]oxazepine-10-carboxamide]	15 nM
